Assay results reported in the NIST ThermoML archive (doi:10.1021/je034189g).
± gives the expanded uncertainty stated by the source.

Conditions: Liquid; Ebulliometric method (Recirculating still)

| Normal boiling temperature [°C] | Compound |
| --- | --- |
| 80.63 ± 0.15 | C1CCCCC1 [cyclohexane] |
| 153.62 ± 0.15 | COc1ccccc1 [anisole] |
| 80.01 ± 0.15 | c1ccccc1 [benzene] |
| 137.63 ± 0.15 | CCCCCO [pentan-1-ol] |
